In US4490388A, “Amidine compound and anticomplement agent comprising same” (Torii & Co., Ltd., priority 1981, dated 1984):
Read-outs that look alike come from different tables or passages of the source.

Columns and labels:
Trypsin = target: T1, Trypsin (Bos taurus, UniProt P00760); assay: Anti-trypsin activity (hydrolysis of TAME); type: biochemical; conditions: molar concentration inhibiting 50% of TAME hydrolysis; read-out: id50, Trypsin
T1 sequence (P00760 24-246): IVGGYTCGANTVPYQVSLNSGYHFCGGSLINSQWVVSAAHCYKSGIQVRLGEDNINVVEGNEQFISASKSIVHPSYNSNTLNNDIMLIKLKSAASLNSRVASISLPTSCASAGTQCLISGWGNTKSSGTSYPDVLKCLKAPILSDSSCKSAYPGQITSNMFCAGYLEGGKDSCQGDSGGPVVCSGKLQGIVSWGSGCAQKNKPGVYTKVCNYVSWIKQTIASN
Description: (§1) The anti-trypsin, anti-plasmin, anti-kallikrein and anti-thrombin activities were determined according to the method of Muramatsu et al. [M. Muramatsu, T. Onishi, S. Makino, Y. Hayashi and S. Fujii, J. of Biochem., 58, 214 (1965)]. The data summarized in Table 1 are expressed in terms of molar concentration (id50) of the test compound which inhibits 50% of the activity of each enzyme to hydrolyze TAME (tosylarginine methyl ester). The compound No. corresponds to the compound number shown in Examples.

Plasmin = Plasmin (Homo sapiens, UniProt P00747); assay: Anti-plasmin activity (hydrolysis of TAME); type: biochemical; conditions: molar concentration inhibiting 50% of TAME hydrolysis; read-out: id50, Plasmin
Description: as §1

Thrombin = Thrombin (Bos taurus, UniProt P00735); assay: Anti-thrombin activity (hydrolysis of TAME); type: biochemical
Description: as §1

C1r = target: T2, C1r (Homo sapiens, UniProt P00736); assay: Anti-C1 esterase activity, C1r (hydrolysis of AAME); type: biochemical; conditions: for IC50: molar concentration inhibiting 50% of AAME hydrolysis, read-out: Anti-C1 activity, C1r id50
T2 sequence (P00736 464-705 limits assumed): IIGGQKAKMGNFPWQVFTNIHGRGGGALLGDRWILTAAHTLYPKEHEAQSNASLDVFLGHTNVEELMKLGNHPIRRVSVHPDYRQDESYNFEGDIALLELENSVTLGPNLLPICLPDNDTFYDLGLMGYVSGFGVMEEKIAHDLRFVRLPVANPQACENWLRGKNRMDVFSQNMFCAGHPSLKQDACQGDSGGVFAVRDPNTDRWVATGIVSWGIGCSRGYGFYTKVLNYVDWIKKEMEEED
T2 sequence (P00736 18-463 partner limits assumed): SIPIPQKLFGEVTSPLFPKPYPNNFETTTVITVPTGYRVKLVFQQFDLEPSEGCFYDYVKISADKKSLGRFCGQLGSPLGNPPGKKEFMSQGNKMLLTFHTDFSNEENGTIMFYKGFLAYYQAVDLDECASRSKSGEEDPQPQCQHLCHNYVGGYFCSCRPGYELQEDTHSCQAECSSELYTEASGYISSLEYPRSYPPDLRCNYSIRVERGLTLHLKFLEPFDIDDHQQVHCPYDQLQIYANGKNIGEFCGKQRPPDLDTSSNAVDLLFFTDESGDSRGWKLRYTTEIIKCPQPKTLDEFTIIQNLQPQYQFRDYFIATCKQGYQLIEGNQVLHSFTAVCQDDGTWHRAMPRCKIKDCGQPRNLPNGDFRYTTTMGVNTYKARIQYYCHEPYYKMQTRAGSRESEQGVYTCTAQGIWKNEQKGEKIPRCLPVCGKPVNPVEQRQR
Description: The anti-C1 esterase (C1r, C1s) activity was determined according to the method of Okamura et al. [K. Okamura, M. Muramatsu and B. Fujii, Biochem. Biophys. […] The figures in Table 2 have the following meanings:
C1r: Molar concentration of the test compound which inhibits 50% of the ability of C1r to hydrolyse AAME (acetylarginin methyl ester) (id50).

complement = assay: Inhibition of complement mediated hemolysis; type: cell-based; conditions: read-out: Inhibition of complement mediated hemolysis (%)
Description: The complement mediated hemolysis is widely used as a means to determine the titration of complement. The principle of this method is based on the fact that hemolysis is caused by the activation of complement, when the latter is added to a complex (immune complex) of erythrocytes and the autibody thereof. The degree of hemolysis varies in proportion to the amount of complement added. Therefore, when a known amount of complement admixed with a C1 esterase inhibitor is used, the hemolysis must be suppressed in proportion to the inhibitory activity.
The anti-C1 esterase (C1r, C1s) activity was determined according to the method of Okamura et al. [K. Okamura, M. Muramatsu and B. Fujii, Biochem. Biophys. […] The inhibition of complement mediated hemolysis was determined according to the method of Baker et al. [B. R. Baker and E. H. Erickson, J. Med. Chem., 12, 408-414 (1969)].

Sequence of Plasmin (P00747 581-810 limits assumed): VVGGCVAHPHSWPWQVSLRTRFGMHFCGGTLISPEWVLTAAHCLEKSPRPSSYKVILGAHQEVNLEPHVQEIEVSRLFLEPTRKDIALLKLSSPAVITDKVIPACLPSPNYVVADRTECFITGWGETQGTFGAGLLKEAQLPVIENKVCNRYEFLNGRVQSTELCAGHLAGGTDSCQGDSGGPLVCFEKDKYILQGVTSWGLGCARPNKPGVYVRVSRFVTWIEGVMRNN
Sequence of Plasmin (P00747 97-580 partner limits assumed): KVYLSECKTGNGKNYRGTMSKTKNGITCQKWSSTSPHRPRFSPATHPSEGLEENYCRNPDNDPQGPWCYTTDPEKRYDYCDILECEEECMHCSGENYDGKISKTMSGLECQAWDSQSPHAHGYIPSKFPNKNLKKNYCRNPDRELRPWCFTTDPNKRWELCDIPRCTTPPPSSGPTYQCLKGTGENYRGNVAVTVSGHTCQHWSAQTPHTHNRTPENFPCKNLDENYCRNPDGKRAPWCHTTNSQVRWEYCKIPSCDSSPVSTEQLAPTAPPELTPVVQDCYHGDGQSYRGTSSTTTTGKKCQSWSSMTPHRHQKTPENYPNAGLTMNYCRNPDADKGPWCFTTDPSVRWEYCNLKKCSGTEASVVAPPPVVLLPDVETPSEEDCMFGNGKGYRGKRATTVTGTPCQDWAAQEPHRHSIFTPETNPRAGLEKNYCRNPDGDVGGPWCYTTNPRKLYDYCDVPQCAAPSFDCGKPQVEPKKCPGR

inhibition at 10 µM (C1r; at 1×10^-5 M, read-out: Anti-C1 activity, C1r percent inhibition) | SMILES | IC50 (Trypsin) | IC50 (Plasmin) | IC50 (Thrombin) | IC50 (C1r) | inhibition at 10 µM (complement; 1 × 10^-5 M) | inhibition at 1 µM (complement; 1 × 10^-6 M) | inhibition at 0.1 µM (complement) | inhibition at 100 µM (complement) | inhibition at 100 µM (complement; 1 × 10^-4 M) | inhibition at 0.1 µM (complement; 1 × 10^-7 M) | inhibition at 1 µM (complement) | inhibition at 10 µM (complement)
– | N=C(N)C=Cc1ccc(OC(=O)[C@H]2CC[C@H](CNC(=O)OCc3ccccc3)CC2)cc1 [Compound 11, 4-(β-amidinoethenyl)phenyl trans-4-benzyloxycarbonylaminomethylcyclohexanecarboxylate] | 5 µM | 0.3 µM | > 10 µM | 5 µM | 99% | 82% | 25% | 95% | – | – | – | –
46% | N=C(N)C=Cc1ccc(OC(=O)[C@H]2CC[C@H](CN)CC2)cc1 [Compound 10, 4-(β-amidinoethenyl)phenyl trans-4-aminomethylcyclohexanecarboxylate] | 6 µM | 6 µM | > 10 µM | – | 99% | 98% | – | – | 100% | 74% | – | –
– | N=C(N)C=Cc1ccc(OC(=O)CCCc2ccc([N+](=O)[O-])cc2)cc1 [Compound 38] | – | – | – | – | 76% | 27% | – | – | 98% | 7% | – | –
– | CC=CC=CC(=O)Oc1ccc(C=CC(=N)N)cc1 [Compound 4] | 0.4 µM | 0.9 µM | – | 5 µM | 99% | – | 12% | 100% | – | – | 86% | –
– | CC(=O)Nc1ccc(C(=O)Oc2ccc(C=CC(=N)N)cc2)cc1 [Compound 31] | – | – | – | – | 91% | 65% | – | – | 98% | 25% | – | –
– | N=C(N)C=Cc1ccc(OC(=O)c2ccc(CNC(=O)OCc3ccccc3)cc2)cc1 [Compound 33] | – | – | – | – | – | 29% | – | 92% | – | 7% | – | 89%
– | Cc1cccc(C(=O)Oc2ccc(C=CC(=N)N)cc2)c1 [Compound 19] | – | – | – | – | 98% | 65% | 37% | – | 95% | – | – | –
– | Cc1ccccc1C(=O)Oc1ccc(C=CC(=N)N)cc1 [Compound 18] | – | – | – | – | 38% | 12% | – | – | 91% | 0% | – | –
– | N=C(N)C=Cc1ccc(OC(=O)c2ccc3c(c2)OCO3)cc1 [Compound 27] | – | – | – | – | 99% | 88% | – | – | 100% | 44% | – | –
– | N=C(N)C=Cc1ccc(OC(=O)C=Cc2ccccc2Cl)cc1 [Compound 40] | – | – | – | – | – | 0% | – | – | 15% | 0% | – | 3%
– | CCC(=Cc1ccc(NC(=N)N)cc1)C(=O)Oc1ccc(C=CC(=N)N)cc1 [Compound 36] | 5 µM | > 10 µM | 5 µM | – | – | 8% | – | – | 93% | 0% | – | 40%
– | COC(=O)c1ccc(C(=O)Oc2ccc(C=CC(=N)N)cc2)cc1 [Compound 29] | – | – | – | – | 93% | 57% | – | – | 98% | 25% | – | –
– | N=C(N)C=Cc1ccc(OC(=O)C=Cc2ccccc2)cc1 [Compound 17, 4-(β-amidinoethenyl)phenyl cinnamate] | – | – | – | – | 97% | – | – | – | 93% | 58% | 83% | –
– | COc1ccc(C(=O)Oc2ccc(C=CC(=N)N)cc2)cc1 [Compound 23] | – | – | – | – | 99% | 94% | – | – | 98% | 42% | – | –
